From patent publication US6264935A, “Ophthalmic composition containing a carbonic anhydrase inhibitor and xanthan gum” (priority 1996, dated 2001)
Entries after “also recorded” stand apart in the source; their conditions may differ.

What was measured:
[1] = rabbit, in vivo
[2] = background; result in words; cited from earlier work

| Compound | change in ocular bioavailability compared with the TRUSOPT formulation [1] | reduction of intraocular pressure [2] | side effects / local effects [2] | duration of activity and loss of effect [2] |
| --- | --- | --- | --- | --- |
| polyvinyl alcohol | only minor changes in bioavailability | – | – | – |
| cyclodextrin | only minor changes in bioavailability | – | – | – |
| CC[C@@H]1C(=O)OC[C@@H]1Cc1cncn1C [pilocarpine] | – | reduce intraocular pressure | undesirable local effects | – |
| CC(C)(C)NC[C@H](O)COc1nsnc1N1CCOCC1 [timolol] | – | found to reduce intraocular pressure | devoid of many unwanted side effects associated with pilocarpine; also recorded: devoid of local anaesthetic properties | long duration of activity; also recorded: minimal loss of effect with increased duration of dosing |
